How the values were obtained:
[1] = stability under ethylene oxide sterilization, heating, and aging with paclitaxel; conditions: formulated with paclitaxel
[2] = target: albumin (Homo sapiens, UniProt P02768); conditions: cited from earlier work
[3] = urethral stricture patients; 1 hour, 3 hours, 5 hours, 10 hours, 24 hours, and 5 days
[4] = BSA added; cited from earlier work

Sequence of albumin (P02768 25-609): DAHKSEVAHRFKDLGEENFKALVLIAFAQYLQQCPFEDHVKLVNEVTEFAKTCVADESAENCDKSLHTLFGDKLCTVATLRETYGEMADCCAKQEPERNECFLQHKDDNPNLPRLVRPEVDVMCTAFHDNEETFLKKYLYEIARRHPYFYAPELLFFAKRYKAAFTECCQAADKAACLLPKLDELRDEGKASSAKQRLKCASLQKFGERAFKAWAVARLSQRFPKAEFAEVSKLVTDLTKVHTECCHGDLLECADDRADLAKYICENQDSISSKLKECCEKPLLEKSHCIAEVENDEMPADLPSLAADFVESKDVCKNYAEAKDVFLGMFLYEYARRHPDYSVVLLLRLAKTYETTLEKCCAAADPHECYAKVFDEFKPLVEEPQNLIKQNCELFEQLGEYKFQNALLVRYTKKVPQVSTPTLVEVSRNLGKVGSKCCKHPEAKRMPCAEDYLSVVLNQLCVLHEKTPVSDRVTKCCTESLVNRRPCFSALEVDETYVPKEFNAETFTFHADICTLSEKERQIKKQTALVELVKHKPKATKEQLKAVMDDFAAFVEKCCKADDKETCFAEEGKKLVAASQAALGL

O=C(O)c1ccccc1 [benzoic acid]
stability under ethylene oxide sterilization, heating, and aging process [1]: not stable

CO[C@H]1C[C@@H]2CC[C@@H](C)[C@@](O)(O2)C(=O)C(=O)N2CCCC[C@H]2C(=O)O[C@H]([C@H](C)C[C@@H]2CC[C@@H](O)[C@H](OC)C2)CC(=O)[C@H](C)/C=C(\C)[C@@H](O)[C@@H](OC)C(=O)[C@H](C)C[C@H](C)/C=C/C=C/C=C/1C [sirolimus]
share of protein binding to albumin ([2]; bound primarily to albumin): 97% | protein bound [2]: 92%

CC(=O)O[C@H]1C(=O)[C@@]2(C)[C@H]([C@H](OC(=O)c3ccccc3)[C@]3(O)C[C@H](OC(=O)[C@H](O)[C@@H](NC(=O)c4ccccc4)c4ccccc4)C(C)=C1C3(C)C)[C@]1(OC(C)=O)CO[C@@H]1C[C@@H]2O [paclitaxel]
Human plasma paclitaxel concentration on average [3]: below the level of quantification | solubility increase in PBS with the addition of BSA [4]: over 20 fold

Reference: US12721816B2, “Polymer-encapsulated drug particles” (Tonic Medical, Inc., priority 2020, dated 2026)
